# Measurements: ChEMBL document CHEMBL1123078 (J Med Chem, 1985)
# Columns and labels:
# Dihydrofolate reductase [1] = target: T1, Dihydrofolate reductase (Rattus norvegicus, UniProt Q920D2); assay: Binding affinity against Dihydrofolate reductase of rat liver; conditions: read-out: I50
# T1 sequence (Q920D2 whole entry): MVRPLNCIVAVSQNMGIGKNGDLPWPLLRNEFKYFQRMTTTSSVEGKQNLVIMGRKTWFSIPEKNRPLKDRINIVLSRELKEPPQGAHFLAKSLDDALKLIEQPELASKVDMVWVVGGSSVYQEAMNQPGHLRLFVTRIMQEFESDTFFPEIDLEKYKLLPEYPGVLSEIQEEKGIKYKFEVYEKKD
# Escherichia coli [2] = assay: (§1) Relative in vitro Antibacterial activity against Escherichia coli CN314 strain; format: functional; parameters: reference not given here
# Proteus vulgaris = assay: Relative in vitro Antibacterial activity against Proteus vulgaris CN329 strain; format: functional; parameters: unit not given here
# Staphylococcus aureus = assay: Relative in vitro Antibacterial activity against Staphylococcus aureus CN491 strain; format: functional; parameters: unit not given here
# Escherichia coli [3] = assay: as §1; format: functional; parameters: unit not given here
# Salmonella = format: functional, salmonella typhosa; parameters: unit not given here
# Dihydrofolate reductase [4] = target: T2, Dihydrofolate reductase (Gallus gallus, UniProt P00378); assay: Binding affinity against Dihydrofolate reductase of chicken liver; conditions: read-out: I50
# T2 sequence (P00378 whole entry): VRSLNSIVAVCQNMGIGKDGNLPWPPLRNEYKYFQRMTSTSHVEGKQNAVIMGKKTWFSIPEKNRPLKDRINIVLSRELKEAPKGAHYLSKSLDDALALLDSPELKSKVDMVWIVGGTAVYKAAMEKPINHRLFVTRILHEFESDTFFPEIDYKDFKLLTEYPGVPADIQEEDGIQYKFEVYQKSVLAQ
# Dihydrofolate reductase [5] = target: T3, Dihydrofolate reductase (Escherichia coli, UniProt P0ABQ4); assay: Relative Binding affinity against Dihydrofolate reductase of Escherichia coli
# T3 sequence (P0ABQ4 whole entry): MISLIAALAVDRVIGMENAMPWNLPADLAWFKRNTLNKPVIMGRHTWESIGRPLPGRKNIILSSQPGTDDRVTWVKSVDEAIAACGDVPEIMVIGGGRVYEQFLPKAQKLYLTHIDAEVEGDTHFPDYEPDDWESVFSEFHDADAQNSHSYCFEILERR
# [6] = target: T4, Dihydrofolate reductase (Rattus norvegicus) (UniProt Q920D2); assay: Percent inhibition against Dihydrofolate reductase of rat liver at dose 0.42 mg/kg; format: organism-based; parameters: dose 0.42 mg/kg
# T4 sequence (whole entry): T1 sequence (Q920D2 whole entry)
# [7] = target: T4, Dihydrofolate reductase (Rattus norvegicus); assay: Percent inhibition against Dihydrofolate reductase of rat liver at dose 0.9 mg/kg; format: organism-based; parameters: dose 0.9 mg/kg
# Dihydrofolate reductase [8] = target: T2, Dihydrofolate reductase; assay: Binding affinity against Dihydrofolate reductase Inhibitor of chicken liver; conditions: read-out: I50
# [9] = target: T4, Dihydrofolate reductase (Rattus norvegicus); assay: Percent inhibition against Dihydrofolate reductase of rat liver at dose 1.0 mg/kg; format: organism-based; parameters: dose 1 mg/kg
SMILES,IC50 (Dihydrofolate reductase [1]) [µM],MIC (Escherichia coli [2]),MIC (Proteus vulgaris),MIC (Staphylococcus aureus),MIC (Escherichia coli [3]),MIC (Salmonella),other results
COc1cc(Cc2cnc(N)nc2N)cc(OCCCCCCC(=O)O)c1OC,56,100,>50,1,–,–,–
COc1cc(Cc2cnc(N)nc2N)cc(OC)c1OCCCCCC(=O)O,–,–,>100,6,30,30,–
COc1cc(Cc2cnc(N)nc2N)cc(OCCCCC(=O)O)c1OC,27,300,>100,2,–,–,–
COc1cc(Cc2cnc(N)nc2N)cc(OCC(=O)O)c1OC,70,100,>100,>200,–,–,–
CCOC(=O)COc1c(OC)cc(Cc2cnc(N)nc2N)cc1OC,–,–,>100,60,100,10,–
COC(=O)CCCCCOc1c(OC)cc(Cc2cnc(N)nc2N)cc1OC,–,–,>100,6,1000,300,–
COc1cc(Cc2cnc(N)nc2N)cc(OC)c1OCCCC(=O)O,400,–,–,–,–,–,IC50 (Dihydrofolate reductase [4]): 350 µM; Ki (Dihydrofolate reductase [5]): 5.2 nM
COc1cc(Cc2cnc(N)nc2N)cc(OCCCCCC(=O)O)c1OC,35,300,>100,2,–,–,–
COC(=O)COc1cc(Cc2cnc(N)nc2N)cc(OC)c1OC,–,–,>100,200,100,1000,inhibition [6]: 15%
COc1cc(Cc2cnc(N)nc2N)cc(OC)c1OCCCCC(=O)O,640,–,–,–,–,–,–
COC(=O)CCCCCOc1cc(Cc2cnc(N)nc2N)cc(OC)c1OC,180,–,>100,2,100,30,–
COc1cc(Cc2cnc(N)nc2N)cc(OCCC(=O)O)c1OC,74,1,>100,20,–,–,–
COc1cc(Cc2cnc(N)nc2N)cc(OC)c1OCC(=O)O,–,–,>100,200,300,100,–
COc1cc(Cc2cnc(N)nc2N)cc(OC)c1OC [TRIMETHOPRIM],–,1,1,1,–,–,–
COC(=O)CCCCCCOc1cc(Cc2cnc(N)nc2N)cc(OC)c1OC,110,–,>50,0.2,100,50,–
CCOC(=O)CCCOc1c(OC)cc(Cc2cnc(N)nc2N)cc1OC,–,–,–,–,–,–,inhibition [7]: 17%
CCOC(=O)CCCOc1cc(Cc2cnc(N)nc2N)cc(OC)c1OC,160,–,50,10,100,100,–
COc1cc(Cc2cnc(N)nc2N)cc(OCCCC(=O)O)c1OC,9.7,100,>100,20,–,–,IC50 (Dihydrofolate reductase [8]): 22 µM
COC(=O)CCCCOc1c(OC)cc(Cc2cnc(N)nc2N)cc1OC,–,–,–,–,–,–,inhibition [9]: 0%
COC(=O)CCCCOc1cc(Cc2cnc(N)nc2N)cc(OC)c1OC,130,–,>100,2,1000,–,–
